This is an account of results in the SangsterLogP compilation.

The data set is described as follows: method code SF, from DOI: 10.1016/0045-6535(88)90210-x.
For `Cc1ccc(N)cc1Cl`, the logP (as a rule, the decadic logarithm of the partition coefficient of the neutral form, usually between octanol and water) amounted to 2.4.

Turning to `OCCCl`, the logP worked out at 0.03.

Molecule `Oc1cc(Cl)c(Cl)c(Cl)c1Cl` gave a logP of 4.37.

Molecule `CCc1ccccc1N` registered a logP of 2.04.

Molecule `Cc1ccc(N)c(C)c1` displayed a log partition coefficient (logP) of 2.13.

`NC(=O)Nc1cccc(O)c1` yielded a logP of 0.36.

Consider `OCC(Br)CBr` (stereo not drawn), for which the logP is 0.9.

With `CC(C)(C)c1cc(O)cc(C(C)(C)C)c1`, the logP was found to be 4.64.

In turn, `COc1cc(OC)c(Cl)cc1N` showed a logP of 1.45.

In turn, `CC(O)CO` (stereo not drawn) yielded a log partition coefficient (logP) of -0.99.

`Oc1c(I)cc(I)cc1I` returned a log partition coefficient (logP) of 4.5.

`Nc1ccc([N+](=O)[O-])cc1[N+](=O)[O-]` displayed a logP of 1.9.

`Cc1ccc(O)c(N)c1` gave a lipophilicity (logP) of 1.11.
